Laboratory results: article PMC5342446, “Healthy CD4^+ T lymphocytes are not affected by targeted therapies against the PI3K/Akt/mTOR pathway in T-cell acute lymphoblastic leukemia” (Oncotarget, 2016)
Residues, ends and D or L forms follow the SMILES beside them. *: point of attachment. Cbz = O=C(OCc1ccccc1)*; CH2F = FC*

Assays:
JURKAT cells = assay: MTT cell viability assay, JURKAT; type: cell-based, human; conditions: for effect on cell viability, alone: 24 h; for IC50: Homo sapiens, 48 h, read-out: IC50 values of cells treated for 48 hours
Method: (§1) To determine how these inhibitors could affect the viability of the primary CD4^+ T lymphocytes (both unstimulated and stimulated) and T-ALL cells, we performed MTT assays. […] Except for the unstimulated T lymphocytes, BGT226 and the mTORC1/2 inhibitor Torin-2 turned out to be the most powerful drugs in these cells. For unstimulated T lymphocytes, there was no relevant inhibition for both drugs (IC50 > 2 μM).
(§2) T-acute lymphoblastic leukemia cell lines obtained from Deutsche Sammlung von Mikroorganismen und Zellkulturen GmbH (Braunschweig, Germany). JURKAT and MOLT-4 were maintained in RPMI-1640 medium supplemented with 10% heat-inactivated fetal bovine serum (FBS), 100 units/ml penicillin and […] streptomycin at a density of 0.5 to 2 × 10^6 cells/ml and were incubated at 37°C with 5% CO2.
(§3) MTT (3-[4,5-Dimethylthythiazol-2-yl]-2,5-Diphenyltetrazolium Bromide) assays were performed to assess the sensitivity of cells to drugs, as described.

stimulated T lymphocytes = assay: MTT cell viability assay, stimulated (phytohemagglutinin) CD4+ T lymphocytes; type: cell-based, human; conditions: for effect on cell viability, alone: 24 h; for IC50: Homo sapiens, T-lymphocyte, 48 h, read-out: IC50 values of cells treated for 48 hours
Method: as §1
(§4) Peripheral Blood CD4+ T lymphocytes from healthy donors were obtained with informed consent according to institutional guidelines and isolated with Ficoll-Paque and magnetic beads labelling protocols (Dynabeads, Monza MI, Italy). Whole blood or buffy coat were diluted with PBS containing 0.1% BSA and 0.6% Na-citrate or 2 mM EDTA (without Ca2+ and Mg2+) in ratio 1:1. Thirty-five ml of the diluted sample were layered over 15 ml of Ficoll-Paque medium and centrifuged at 600 g for 40 minutes at 20°C. The peripheral blood mononuclear cell (PMNC) layer was transferred to centrifuge tube containing three volumes of PBS and centrifuged at 100 g for 10 minutes at 20°C. This step was repeated twice, supernatant was discarded and cells were suspended in complete RPMI-1640 medium.
(§5) 500 μl PMNC were transferred into a test tube, at a density of 5 × 10^7 cells/ml supplemented with100 μl of heat inactivated FBS and antibody mix and incubated at 4°C for 20 minutes. Followed by addition of 4 ml isolation buffer and centrifuged at 350 g at 4°C for 8 minutes. The supernatant discarded, and the pelleted cells were suspended in 500 μl of isolation buffer, added with 500 μl of pre-warmed dynabeads and incubated for 15 min at 20°C. The cells bound to beads were resuspended using 4 ml isolation buffer. The supernatant containing the human CD4^+ T lymphocytes was obtained by placing the resuspended cells in magnet for 2 minutes. The human CD4^+ T lymphocytes were grown in complete RPMI-1640 medium with 10μg/ml phytohemagglutinin at a density of 1 × 10^6 cells/ml, in a CO2 incubator at 37°C for 24 h.
as §3

MOLT-4 cells = assay: MTT cell viability assay, MOLT-4; type: cell-based, human; conditions: for IC50: Homo sapiens, MOLT-4, MTT, 48 h, read-out: IC50 values of cells treated for 48 hours
Method: as §1, §2, §3

[1] = test system: unstimulated T lymphocytes; assay: MTT cell viability assay, unstimulated CD4+ T lymphocytes; type: cell-based; conditions: Homo sapiens, T-lymphocyte, 48 h, read-out: IC50 values of cells treated for 48 hours
Method: To determine how these inhibitors could affect the viability of the primary CD4^+ T lymphocytes (both unstimulated and stimulated) and T-ALL cells, we performed MTT assays. Cells were incubated for 48 h with the inhibitors, and then cell survival was analyzed (Figure 2A and Table 1). Except for the unstimulated T lymphocytes, BGT226 and the mTORC1/2 inhibitor Torin-2 turned out to be the most powerful drugs in these cells. For unstimulated T lymphocytes, there was no relevant inhibition for both drugs (IC50 > 2 μM).
as §4, §5, §3

Structure (SMILES)	IC50 (JURKAT cells)	IC50 (MOLT-4 cells)	IC50 [1]	IC50 (stimulated T lymphocytes)	further results
CO/C1=C\C(C)=C\[C@@H](C)[C@@H](O)[C@@H](C)C/C(C)=C/C=C/[C@H](OC)[C@@H]([C@@H](C)[C@@H](O)[C@H](C)[C@@]2(O)C[C@@H](O)[C@H](C)[C@@H](C(C)C)O2)OC1=O [Bafilomycin A1]					effect on cell viability, alone (JURKAT cells; even at 4 μM): did not affect cell viability; effect on cell viability, alone (stimulated T lymphocytes; even at 4 μM): did not affect cell viability
COC(=O)C[C@H](NC(=O)[C@H](C)NC(=O)[C@@H](NC(=O)OCc1ccccc1)C(C)C)C(=O)CF [z-VAD-fmk] (Cbz-Val-Ala-Asp(OMe)-CH2F)					effect on cell viability, alone (MOLT-4 cells; MOLT-4, alone, 25 μM, 24 h, MTT): no relevant effect on cell viability; effect on cell viability, alone (stimulated T lymphocytes; 25 μM): no relevant effect on cell viability
Cn1cnc(N)c2ncnc1-2 [3-MA, 3-Methyladenine]					effect on cell viability, alone (JURKAT cells; even at 10 μM): did not affect cell viability; effect on cell viability, alone (stimulated T lymphocytes; even at 10 μM): did not affect cell viability

Now from value to compound, other results behind:

IC50 (JURKAT cells)	IC50 (MOLT-4 cells)	Structure (SMILES)	IC50 [1]	IC50 (stimulated T lymphocytes)	further results
> 2000 nM	1580 nM	NC1(c2ccc(-c3nc4ccn5c(=O)[nH]nc5c4cc3-c3ccccc3)cc2)CCC1 [MK-2206]	> 2000 nM	> 2000 nM	
80 nM	60 nM	COc1ccc(-c2ccc3ncc4c(c3c2)n(-c2ccc(N3CCNCC3)c(C(F)(F)F)c2)c(=O)n4C)cn1 [BGT226]	> 2000 nM	1610 nM	
100 nM	100 nM	Nc1ccc(-c2ccc3ncc4ccc(=O)n(-c5cccc(C(F)(F)F)c5)c4c3c2)cn1 [Torin-2, 9-(6-aminopyridin-3-yl)-1-(3-(trifluoromethyl)phenyl)benzo[h][1,6]naphthyridin-2(1H)-one]	> 2000 nM	1800 nM	
950 nM	520 nM	FC(F)c1nc2ccccc2n1-c1nc(N2CCOCC2)nc(N2CCOCC2)n1 [ZSTK474]	> 2000 nM	> 2000 nM	
